Laboratory results: the supplement of paper PMC10011410
± gives the standard deviation of the averaged measurements.

Tests used:
U-2 OS [1] = assay: cell painting activity score (Mahalanobis distance from DMSO wells); higher = stronger morphological phenotype; conditions: 24 h
Experimental: (§1)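 Cell painting in U-2 OS cells (384-well, about 1,500 cells per well), compound exposure 24 h, usually six 2-fold concentrations from 20 to 0.625 uM (some compounds higher or lower). Relative cell count is the cell number per well relative to DMSO wells. Activity score is the Mahalanobis distance of the morphological profile from DMSO control wells. Mean of four technical replicate plates.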

U-2 OS [2] = assay: relative cell count vs DMSO (cell painting) (fraction of DMSO control); higher = more cells remaining (less cytotoxic); conditions: 24 h
Experimental: as §1

U-2 OS [3] = assay: AUC of culture confluence over time (live-cell imaging) (AUC (confluence % x time)); higher = more confluent culture (less growth inhibition)
Experimental: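 Live-cell Incucyte imaging of U-2 OS cells in F-12K medium. Compounds were tested mostly at 5, 10 and 20 uM, and cells were imaged every 4 h for up to 60 h. Value is the area under the curve of phase-contrast confluence over time.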

Compound | cell painting activity score (U-2 OS [1]; 0.625 µM) | cell painting activity score (U-2 OS [1]; 1.25 µM) | cell painting activity score (U-2 OS [1]; 2.5 µM) | cell painting activity score (U-2 OS [1]; 5 µM) | cell painting activity score (U-2 OS [1]; 10 µM) | cell painting activity score (U-2 OS [1]; 20 µM) | relative cell count (U-2 OS [2]; 0.625 µM) | relative cell count (U-2 OS [2]; 1.25 µM) | relative cell count (U-2 OS [2]; 2.5 µM) | relative cell count (U-2 OS [2]; 5 µM) | relative cell count (U-2 OS [2]; 10 µM) | relative cell count (U-2 OS [2]; 20 µM) | AUC of culture confluence over time (U-2 OS [3]; 5 µM) | AUC of culture confluence over time (U-2 OS [3]; 10 µM) | AUC of culture confluence over time (U-2 OS [3]; 20 µM) | cell painting activity score (U-2 OS [1]; 0.019532 µM) | cell painting activity score (U-2 OS [1]; 0.07812 µM) | cell painting activity score (U-2 OS [1]; 0.3124 µM) | cell painting activity score (U-2 OS [1]; 0.3126 µM) | relative cell count (U-2 OS [2]; 0.019532 µM) | relative cell count (U-2 OS [2]; 0.07812 µM) | relative cell count (U-2 OS [2]; 0.3124 µM) | relative cell count (U-2 OS [2]; 0.3126 µM) | cell painting activity score (U-2 OS [1]; 40 µM) | cell painting activity score (U-2 OS [1]; 80 µM) | relative cell count (U-2 OS [2]; 40 µM) | relative cell count (U-2 OS [2]; 80 µM)
Nc1ccn([C@@H]2O[C@H](CO)[C@@H](O)C2(F)F)c(=O)n1 | 13.7 | 14 | 14.9 | 15.2 | 15.4 | 14.3 | 0.601 | 0.571 | 0.574 | 0.581 | 0.624 | 0.589 | 29.2 | 31.9 | 28.7 | – | – | – | – | – | – | – | – | – | – | – | –
Cn1ncnc2c(=O)n(C)c(=O)nc1-2 | 14.5 | 14 | 15.7 | 30 | 30.1 | 29 | 0.575 | 0.386 | 0.0951 | 0.0345 | 0.021 | 0.0323 | 16.9 | 16.5 | 14.2 | – | – | – | – | – | – | – | – | – | – | – | –
CN[C@@H]1C[C@H]2O[C@@](C)([C@@H]1OC)n1c3ccccc3c3c4c(c5c6ccccc6n2c5c31)C(=O)NC4 | – | 24.2 ± 2.7 | – | 25.5 ± 2.6 | – | 24.1 ± 2 | – | 0.095 ± 0.0065 | – | 0.127 ± 0.042 | – | 0.128 ± 0.039 | – | – | – | 16.8 ± 1.3 | 19.8 ± 1.5 | 21.2 | 25.8 ± 2.3 | 0.757 ± 0.098 | 0.467 ± 0.25 | 0.294 | 0.0507 ± 0.0014 | – | – | – | –
CNc1nc(-c2ccccc2)[n+](-c2ccccc2)s1 | 2.89 | 2.97 | 3.6 | 3.74 | 6.88 | 14.5 | 1 | 1.03 | 0.994 | 0.992 | 0.516 | 0.0974 | 36 | 44.4 | 42.5 | – | – | – | – | – | – | – | – | – | – | – | –
O=C(O)C1(C(=O)O)CCC1.[NH2-].[NH2-].[Pt+2] | 4.1 | 4.15 | 4.49 | 4.29 | 5.7 | 6.66 | 0.92 | 0.853 | 0.786 | 0.855 | 0.844 | 0.814 | – | – | – | – | – | – | – | – | – | – | – | – | – | – | –
CC(C)C[C@H](NC(=O)[C@H](CCc1ccccc1)NC(=O)CN1CCOCC1)C(=O)N[C@@H](Cc1ccccc1)C(=O)N[C@@H](CC(C)C)C(=O)[C@@]1(C)CO1 | 30.8 | 31.9 | 32.5 | 31.5 | 28.8 | 29.7 | 0.149 | 0.136 | 0.125 | 0.141 | 0.143 | 0.149 | 18.4 | 17.5 | 16.1 | – | – | – | – | – | – | – | – | – | – | – | –
CCN(CC)CCCC(C)Nc1ccnc2cc(Cl)ccc12 (stereo not given) | 4.84 | 5.94 | 4.8 | 4.43 | 4.73 | 6.72 | 1.2 | 1.12 | 1.09 | 1.19 | 1.08 | 1.09 | – | – | – | – | – | – | – | – | – | – | – | – | – | – | –
CCN1C(=O)C=CC1=O | 4.77 | 5.69 | 7.04 | 9.18 | 20.6 | 26.6 | 0.938 | 0.928 | 0.891 | 0.724 | 0.254 | 0.0684 | – | – | – | – | – | – | – | – | – | – | – | 5.94 | 6.33 | 0.911 | 0.885
O=C(O)CSc1cc(NS(=O)(=O)c2ccc(Br)cc2)c2ccccc2c1O | 4.65 | 5.25 | 6.44 | 7.75 | 8.94 | 11.1 | 0.954 | 0.952 | 0.961 | 0.926 | 0.881 | 0.694 | 44 | 35.2 | 25.1 | – | – | – | – | – | – | – | – | – | – | – | –
CC(C)(C)C1=CC(=O)C=CC1=O | 8.46 | 9.82 | 11.5 | 13.4 | 20.3 | 17.6 | 0.952 | 0.904 | 0.867 | 0.435 | 0.32 | 0.124 | – | – | – | – | – | – | – | – | – | – | – | – | – | – | –
O=C([O-])C(=O)[O-].[NH-][C@@H]1CCCC[C@H]1[NH-].[Pt+4] | 4.3 | 8.95 | 20.4 | 20 | 19.8 | 22.1 | 0.86 | 0.786 | 0.66 | 0.501 | 0.35 | 0.203 | – | – | – | – | – | – | – | – | – | – | – | – | – | – | –
O=c1cc(N2CCOCC2)oc2c(-c3ccccc3)cccc12 | 3.52 | 4.47 | 4.5 | 5.36 | 6.81 | 9.26 | 1.02 | 0.978 | 0.971 | 0.962 | 1 | 0.948 | 42.2 | 40.7 | 31.5 | – | – | – | – | – | – | – | – | – | – | – | –
C[C@@H]1O[C@@H](O[C@H]2[C@H](O[C@H]3CC[C@@]4(C)[C@@H](CC[C@]5(C)[C@@H]4CC=C4[C@@H]6CC(C)(C)CC[C@]6(C(=O)O)CC[C@]45C)[C@]3(C)CO)OC[C@H](O[C@@H]3O[C@H](CO)[C@@H](O)[C@H](O)[C@H]3O)[C@@H]2O)[C@H](O)[C@H](O)[C@H]1O | 4.55 | 9.15 | 31.1 | 31.3 | 33.6 | 35.9 | 0.916 | 0.143 | 0.0325 | 0.0427 | 0.0257 | 0.015 | 14.5 | 16.5 | 13 | – | – | – | – | – | – | – | – | – | – | – | –
O=c1c2ccccc2[se]n1-c1ccccc1 | 4.12 | 5.85 | 11.4 | 12.8 | 12.8 | 18 | 0.989 | 0.995 | 0.973 | 0.98 | 0.521 | 0.312 | 49.5 | 33.9 | 22.3 | – | – | – | – | – | – | – | – | – | – | – | –
O.O=P1(N(CCCl)CCCl)NCCCO1 (stereo not given) | 3.69 | 3.83 | 3.34 | 3.43 | 4.46 | 9.23 | 0.967 | 0.999 | 0.965 | 0.985 | 0.993 | 0.941 | 43.1 | 41.1 | 44.2 | – | – | – | – | – | – | – | – | – | – | – | –
CN(C)/N=N/c1nc[nH]c1C(N)=O | 4.78 | 4.12 | 4.94 | 4.77 | 3.79 | 4.2 | 1 | 0.996 | 0.98 | 0.966 | 1.02 | 1.02 | 43.6 | 42.3 | 45.2 | – | – | – | – | – | – | – | – | – | – | – | –
CC[C@@H]1/C=C/C=C/C[C@H](C)[C@@H](O)[C@](C)(O)C(=O)[C@H](C)[C@@H](O)[C@H](C)C(=O)[C@H](C)[C@@H](O)[C@H](C)/C=C/C(=O)O[C@H]2[C@@H](C)[C@@H](CC1)O[C@@]1(CC[C@@H](C)[C@@H](C[C@H](C)O)O1)[C@@H]2C | 14.7 | 14.7 | 14.5 | 13.4 | 13.8 | 15 | 0.797 | 0.815 | 0.83 | 0.833 | 0.872 | 0.697 | 28.5 | 29.6 | 17.4 | – | – | – | – | – | – | – | – | – | – | – | –
C/C1=C/C(=O)O[C@@H]2C[C@@H](CC[C@H](C)/C=C\CC1)O[C@@](O)([C@@H]1CSC(=O)N1)C2 | 8.28 | 14.2 | 15.4 | 14.9 | 17.7 | 20 | 0.941 | 0.878 | 0.759 | 0.691 | 0.664 | 0.53 | 27.1 | 20.9 | 20.7 | – | – | – | – | – | – | – | – | – | – | – | –
CC(C)C[C@@H](C=O)NC(=O)[C@H](CC(C)C)NC(=O)[C@H](CC(C)C)NC(=O)OCc1ccccc1 | 5.55 | 9.38 | 15.5 | 15.7 | 16 | 17.7 | 0.974 | 0.824 | 0.479 | 0.226 | 0.124 | 0.103 | – | – | – | – | – | – | – | – | – | – | – | – | – | – | –
C=C(C)[C@H]1Cc2c(ccc3c2O[C@@H]2COc4cc(OC)c(OC)cc4[C@@H]2C3=O)O1 | 10.4 | 11.4 | 15.6 | 15.6 | 15.4 | 15.4 | 0.719 | 0.643 | 0.485 | 0.349 | 0.311 | 0.332 | 15 | 17.9 | 21.1 | – | – | – | – | – | – | – | – | – | – | – | –
COc1cc(OC)c2ccccc2c1C=C1C(=O)NC(=S)NC1=O | 13.6 | 16.2 | 16.1 | 16.1 | 18 | 17.8 | 0.833 | 0.687 | 0.472 | 0.428 | 0.377 | 0.379 | 13.1 | 12.8 | 13.6 | – | – | – | – | – | – | – | – | – | – | – | –
CC(=O)N[C@@H](CCCCNC(=O)CSCCNC(=O)CCNC(=O)[C@H](O)C(C)(C)COP(=O)(O)OP(=O)(O)OC[C@H]1O[C@@H](n2cnc3c(N)ncnc32)[C@H](O)[C@@H]1OP(=O)(O)O)C(N)=O.O=C(O)C(F)(F)F | 3.32 | 5.02 | 3.77 | 3.73 | 4.57 | 4.45 | 0.896 | 0.879 | 0.923 | 0.883 | 0.875 | 0.903 | 44.2 | 44.8 | 42.4 | – | – | – | – | – | – | – | – | – | – | – | –
